Laboratory results: US6984649B1, “Pyridine derivatives” (Bayer Aktiengesellschaft, priority 2000, dated 2006)
Structures can show the parent of a compound that is named as a salt.

These compounds were tested against T1, human IKK-β (Homo sapiens, UniProt O14920) (assay: IKK-β kinase inhibitory assay). Conditions: compounds as yielded by solid phase synthesis, purity about 40 to 90%, read-out: In vitro activity grade (In vitro IC50).
T1 construct: A cDNA fragment encoding human IKK-β open reading frame was generated by PCR; His tag (from pcDNA3.1/His C); made in house; host or cells: Sf21 insect cells (baculovirus); substrate made in E. coli
T1 sequence (O14920 1-756): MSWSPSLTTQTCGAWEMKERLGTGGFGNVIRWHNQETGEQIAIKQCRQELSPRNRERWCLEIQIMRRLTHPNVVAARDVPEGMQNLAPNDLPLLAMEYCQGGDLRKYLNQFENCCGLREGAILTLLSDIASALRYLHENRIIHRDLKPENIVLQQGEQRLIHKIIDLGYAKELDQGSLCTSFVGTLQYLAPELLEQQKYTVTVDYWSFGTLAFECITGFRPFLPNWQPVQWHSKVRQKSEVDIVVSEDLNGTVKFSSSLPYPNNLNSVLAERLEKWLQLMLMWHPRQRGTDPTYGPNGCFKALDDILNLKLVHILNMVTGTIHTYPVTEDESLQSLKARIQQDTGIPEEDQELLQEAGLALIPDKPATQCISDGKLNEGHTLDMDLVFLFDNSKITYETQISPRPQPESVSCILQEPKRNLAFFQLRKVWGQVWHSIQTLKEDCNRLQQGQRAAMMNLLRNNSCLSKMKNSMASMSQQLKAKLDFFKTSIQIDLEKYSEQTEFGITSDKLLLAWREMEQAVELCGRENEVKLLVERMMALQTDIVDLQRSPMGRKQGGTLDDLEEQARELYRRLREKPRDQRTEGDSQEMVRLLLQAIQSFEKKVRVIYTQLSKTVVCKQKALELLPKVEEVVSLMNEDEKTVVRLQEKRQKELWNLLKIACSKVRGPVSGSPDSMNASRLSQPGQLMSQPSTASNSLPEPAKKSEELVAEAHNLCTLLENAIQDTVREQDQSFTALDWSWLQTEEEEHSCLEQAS
Assay type: biochemical
Excerpt: [IKK-β Kinase Inhibitory Assay]
(1) Preparation of IKK-β Kinase Protein.
• A cDNA fragment encoding human IKK-β open reading frame was generated by PCR with the use of a pair of primers designed from the published sequence (Woronicz J D et al. (1997) Science 278, 866-869). A template was obtained from Quickclone cDNA (Clontech) using Elongase™ Amplification kit (Life Technologies). The DNA fragments generated by PCR were gel-purified and subcloned into pBluescript. The cDNA fragment cloned in pBluescript was inserted into pcDNA3.1/His C KpnI/NotI, and transferred into pVL1393 SmaI/XbaI (Pharmingen) to construct a baculovirus transfer vector. Then the vector, together with the linearized baculovirus (BaculoGold™, Pharmingen) was used to transfect Sf21 cells (Invitrogen, San Diego, Calif.). Generated recombinant baculovirus was cloned and amplified in Sf21 cells, grown in TNM-FH insect cell medium (Life Technologies, Inc.) supplemented with 10% FCS, […] Gentamycin, 0.1% Pluronic F-68 (Life Technologies, Inc.) as suspension culture (200 ml in 1 L Erlenmeyer flask; 27° C.; 130 rpm). Sf21 cells were infected with this amplified virus with a multiplicity of infection of 5 following standard protocols (Crossen R, Gruenwald S (1997) Baculovirus Expression Vector System Instruction Manual, Pharmingen Corporation) and harvested 48 hrs later. The cells were lysed to obtain the produced chimeric protein of IKK-β kinase fused by histidine (His-tagged IKK-beta). (2) The Preparation of Purified GST-IκBα Fusion Proteins • An expression vector containing the nucleotide sequence encoding fusion protein of GST with amino acid residues 1 to 54 of IκBα under the control of an IPTG-inducible promoter was constructed. The expression vector was introduced in E. coli and the transformant was cultured and lysed to obtain a GST-IκBα fusion protein. Then the resulting GST-IκBα fusion protein was purified and biotinated for kinase assay. (3) The Measurement of IKK-β Kinase Activity • The 96-well format kinase assay of IKK-β were performed to test the inhibitory activity of the compounds of the present invention. First, 5 μl of a test compound was put in the presence of 2.5% dimethyl sulfoxide (DMSO) in each well in a U-bottomed 96-well plate (Falcon). For control wells of background (BG) and total phosphorylation (TP), 5 μl of 2.5% DMSO was put. Recombinant IKK-β (final 0.6 μg/ml) and bio-GST-IκBα (1-54) (final 0.2 μM) were diluted in 25 μl of 2×kinase buffer β (40 mM Tris-HCl, pH 7.6, 40 mM MgCl2, 40 mM β-glycerophosphate, 40 mM p-nitrophenylphosphate, 2 mM EDTA, 40 mM creatine phosphate, 2 mM DTT, 2 mM Na3VO4, 0.2 mg/ml BSA and 0.8 mM phenylmethylsulfonyl fluoride) and transferred to the 96-well plate. Bio-GST-IκBα (1-54) in 25 μl of 2×kinase buffer β without IKK-β was transferred to BG wells. Then 20 μl of 12.5 μM ATP, 62.5 μCi/ml [γ-^33P] ATP (Amersham Pharmacia Biotech) was added and the resulting mixture was incubated for 2 hrs at room temperature. The kinase reactions were terminated by the addition of 150 μl of termination buffer (100 mM EDTA, 1 mg/ml BSA, 0.2 mg NaN3). One hundred and fifty μl of the sample were transferred to a streptavidin-coated, white MTP (Steffens Biotechniche Analysen GmbH #08114E14.FWD) to capture the biotinylated substrates. After 1 hr of incubation, non-bound radioactivity was eliminated by washing the wells five times with 300 μl of washing buffer including 0.9% NaCl and 0.1% (w/v) Tween-20 with the use of a MW-96 plate washer (BioTec). The bound radioactivity was determined after the addition of 170 μl MicroScint-PS scintillation cocktail (Packard) using a TopCount scintillation counter. [Syk Tyrosine Kinase Inhibitory Assay for Selectivity] (1) Preparation of Syk Protein • A cDNA fragment encoding human Syk openreading frame was cloned from total RNA of human Burkitt's lymphoma B cell lines, Raji (American Type Culture Collection), with the use of RT-PCR method.

Row | SMILES | IC50 [nM]
1 | N#Cc1c(C2CCCNC2)cc(-c2ncccc2O)nc1N (centres unmarked) [Example 1-6, 6-amino-3′-hydroxy-4-(3-piperidinyl)-2,2′-bipyridine-5-carbonitrile hydrochloride] | < 500
2 | CC(O)c1c(C2CCCNC2)cc(-c2ccccc2O)nc1N (centres unmarked) [Example 15-1, 2-[6-amino-5-(1-hydroxyethyl)-4-(3-piperidinyl)-2-pyridinyl]phenol hydrochloride] | < 500
3 | N#Cc1c(C2CCCC(C(=O)O)C2)cc(-c2ccccc2O)nc1N (centres unmarked) [Example 1-8, 3-[2-amino-3-cyano-6-(2-hydroxyphenyl)-4-pyridinyl]cyclohexanecarboxylic acid] | 500 to 2000
4 | NCCNc1cc(-c2c(O)cccc2OCC2CC2)nc2c1COC(=O)N2 [Example 35-1, 5-[(2-aminoethyl)amino]-7-[2-(cyclopropylmethoxy)-6-hydroxyphenyl]-1,4-dihydro-2H-pyrido[2,3-d][1,3]oxazin-2-one hydrochloride] | < 500
5 | Cn1c(=O)[nH]c2nc(-c3ccccc3O)cc(C3CCCNC3)c2c1=O (centres unmarked) [Example 10-1, 7-(2-hydroxy-phenyl)-3-methyl-5-piperidin-3-yl-1H-pyrido[2,3-d]pyrimidine-2,4-dione hydrochloride] | < 500
6 | N#Cc1c(C2CCCN(Cc3ccccc3)C2)cc(-c2c(O)cccc2OCC2CC2)nc1N (centres unmarked) [Example 3-2, 2-amino-4-(1-benzyl-3-piperidinyl)-6-[2-(cyclopropylmethoxy)-6-hydroxyphenyl]nicotinonitrile] | 2000 to 10000
7 | O=C1NCc2c(C3CCCNC3)cc(-c3c(O)cccc3OCC3CC3)nc2N1 (centres unmarked) [Example 22-2, 7-[2-(cyclopropylmethoxy)-6-hydroxyphenyl]-5-(3-piperidinyl)-3,4-dihydro-1H-pyrido[2,3-d]-pyrimidin-2-one hydrochloride] | < 500
8 | CNc1nc(-c2ccccc2O)cc(C2CCCNC2)c1C#N (centres unmarked) [Example 4-3, 6-(2-hydroxyphenyl)-2-(methylamino)-4-(3-piperidinyl)nicotinonitrile hydrochloride] | 2000 to 10000
9 | N#Cc1c(NC2CCCNC2)cc(-c2ccccc2O)nc1N (centres unmarked) [Example 34-4, 2-amino-6-(2-hydroxyphenyl)-4-(3-piperidinylamino)nicotinonitrile hydrochloride] | < 500
10 | CNC1CCCC(c2cc(-c3ccccc3O)nc(N)c2C#N)C1 (centres unmarked) [Example 1-5, 2-amino-6-(2-hydroxyphenyl)-4-[3-methylamino]cyclohexyl]nicotinonitrile hydrochloride] | < 500
11 | Nc1nc(-c2c(O)cccc2OCC2CC2)cc(C2CCCNC2)c1CO (centres unmarked) [Example 12-1, 2-[6-amino-5-(hydroxymethyl)-4-(3-piperidinyl)-2-pyridinyl]-3-(cyclopropylmethoxy)phenol hydrochloride] | < 500
12 | Nc1nc(-c2c(O)cccc2OCC2CC2)cc(C2CCCNC2)c1CNC(=O)NC1CCCCC1 (centres unmarked) [Example 23-3, N-{[2-amino-6-[2-(cyclopropylmethoxy)-6-hydroxyphenyl]-4-(3-piperidinyl)-3-pyridinyl]methyl}-N′-cyclohexylurea hydrochloride] | < 500

Results, then the compound that gave them:

Row | IC50 [nM] | SMILES
13 | < 500 | Nc1nc(-c2ncccc2O)cc(C2CCCNC2)c1CO (centres unmarked) [Example 11-3, 6′-amino-5′-(hydroxymethyl)-4′-3-piperidinyl)-2,2′-bipyridin-3-ol hydrochloride]
14 | < 500 | N#Cc1c(N)nc(-c2ccccc2O)c(F)c1C1CCCNC1 (centres unmarked) [Example 1-4, 2-amino-5-fluoro-6-(2-hydroxyphenyl)-4-(3-piperidinyl)-nicotinonitrile trifluoroacetate]
15 | < 500 | O=c1[nH]c(=O)c2c(C3CCCNC3)cc(-c3ccccc3O)nc2[nH]1 (centres unmarked) [Example 7-2, 7-(2-hydroxyphenyl)-5-(3-piperidinyl)pyrido[2,3-d]pyrimidine-2,4(1H,3H)-dione hydrochloride]
16 | < 500 | CC(=O)Nc1cc2c(C3CCCNC3)cc(-c3c(O)cccc3OCC3CC3)nc2[nH]c1=O (centres unmarked) [Example 29-3, N-[7-[2-(cyclopropylmethoxy)-6-hydroxyphenyl]-2-oxo-5-(3-piperidinyl)-1,2-dihydro-1,8-naphthyridin-3-yl]acetamide hydrochloride]
17 | < 500 | Nc1nc(-c2ccccc2O)cc(C2CCCNC2)c1C(=O)O (centres unmarked) [Example 9-2, 2-amino-6-(2-hydroxyphenyl)-4-(3-piperidinyl)nicotinic acid hydrochloride]
18 | < 500 | CS(=O)(=O)NC(=O)c1cc2c(C3CCCNC3)cc(-c3c(O)cccc3OCC3CC3)nc2[nH]c1=O (centres unmarked) [Example 31-2, N-{[7-[2-(cyclopropylmethoxy)-6-hydroxyphenyl]-2-oxo-5-(3-piperidinyl)-1,2-dihydro-1,8-naphthyridin-3-yl]carbonyl}methanesulfonamide hydrochloride]
19 | < 500 | Nc1nc(-c2ccccc2O)cc(C2CCCNC2)c1CO (centres unmarked) [Example 11-1, 2-[6-amino-5-(hydroxymethyl)-4-(3-piperidinyl)-2-pyridinyl]phenol hydrochloride]
20 | < 500 | Nc1nc(-c2ccccc2O)cc(C2CCCNC2)c1C(O)c1ccccc1 (centres unmarked) [Example 15-2, 2-[6-amino-5-[hydroxy(phenyl)methyl]-4-(3-piperidinyl)-2-pyridinyl]phenol hydrochloride]
21 | < 500 | Oc1cccc(OCC2CC2)c1-c1cc(C2CCCNC2)c2c(n1)NCCC2 (centres unmarked) [Example 28-01, 3-(cyclopropylmethoxy)-2-[4-(3-piperidinyl)-5,6,7,8-tetrahydro-1,8-naphthyridin-2-yl]phenol]
22 | < 500 | Nc1nc(-c2c(O)cccc2OCC2CC2)cc(C2CCNCC2)c1CON1C(=O)CCC1=O [Example 21-4, 1-{[2-amino-6-[2-(cyclopropylmethoxy)-6-hydroxyphenyl]-4-(4-piperidinyl)-3-pyridinyl]methoxy}-2,5-pyrrolidinedione hydrochloride]
23 | 500 to 2000 | CNC(=O)c1c(C2CCCNC2)cc(-c2ccccc2O)nc1N (centres unmarked) [Example 8-2, 2-amino-6-(2-hydroxyphenyl)-N-methyl-4-(3-piperidinyl)nicotinamide hydrochloride]
